Assay results as given in patent publication US20240415819A1, “MACROCYCLIC COMPOUNDS AS PROTEASOME SUBUNIT BETA TYPE-5 INHIBITORS” (Lead Discovery Center GmbH, priority 2021, published 2024).

Tests used:
[1] = target: T1, β5 subunit of the human immunoproteasome (IPS) (Homo sapiens, UniProt P28062); assay: β5 inhibition assay, human immunoproteasome (Suc-LLVY-AMC); type: biochemical; conditions: IC50 class, Suc-LLVY-AMC substrate
T1 construct: purchased Boston Biochem E-370
Procedure, shortened: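 Human immunoproteasome (1 nM final) was preincubated 10 min at RT with compound in 100 mM HEPES pH 7.5, 50 mM NaCl, 0.02% SDS, 1 mM DTT. Suc-LLVY-AMC (22.6 μM final) was then added for 4 h at RT in the dark. After stopping with 1 μM bortezomib, AMC fluorescence was read (ex 355/em 460 nm).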

[2] = system: RPMI 8226 (B lymphocyte cell line, multiple myeloma); assay: 48 hr CTG viability assay, RPMI 8226; type: cell-based; conditions: Homo sapiens, RPMI-8226; 48 hr CTG; read-out: RPMI-8226 IC50
Method: (§1) A viability assay was conducted for 48 hours to evaluate the inhibition of cancer cell growth by proteasome inhibitors. Briefly, the candidate cell line was plated with a 96-well plate following density of cells, respectively. 6×10^3 Cells/well for A2780 (human ovarian cancer cell line) and MDA-MB-468 (breast carcinoma), 8×10^3 Cells/well for Hs746T (human gastric carcinoma cell line), 1.1×10^4 Cells/well for MM1 S and RPMI 8226 (multiple myeloma). After 24 hours, the cells were treated with various concentrations of the compound (ranging from 0.0015 uM to 10 uM). […] After 48 hours of incubation at 37° C., 5% CO2 incubator, cells were analyzed for viability using the CellTiter-Glo Luminescent Cell Viability assay (Promega, Cat #G7570). All viability assays were performed in duplicate and Luminescence was read using an Envision (Perkin Elmer, USA). Data were analyzed using XLfit software. […] (human gastric carcinoma cell line), MM1 S (B lymphoblast cell line), and RPMI 8226 (B lymphocyte cell line, multiple myeloma). Inhibition is indicated as IC50 [nM] (“-”=not measured).

[3] = system: A549 (human lung carcinoma cell line); assay: Glo assay of A549 cells (Table 3; ProteasomeGlo plating scheme); type: cell-based; conditions: Homo sapiens; A549 cells; read-out: PGLo A549
Text: Inhibition is indicated as IC50 [nM] (“-”=not measured). […] • Chymotrypsin-Like Cell-Based Proteasome-GloTM Assay (Promega; […]) • Cell culture 384-well plates (Greiner BioOne; 781080) • Dispensing cassette, MultiDrop Standard tube dispensing cassette (Thermo Scientific; 24072670) • DPBS (Pan BioTech; P04-36500) • Cell culture 384-well plates (Greiner BioOne; 781080) • CPD source plate: diamond-shape plate (Labcyte; LP-0200) • Intermediate plate (Labcyte; P-05525) [table] • a. Remove the plates with cells from the incubator. • b. Take all the plates including the compound plate, intermediate plate and Staurosporine plate to the ECHO. • c. Click on “Open” in the ECHO software and select the protocol “QLI5_25ul_30 uM-Grenier”. • d. Follow the on-screen prompts and instructions once you click “Start” to insert the compound plate, intermediate plate and destination plates. • e. Change the final number of destination plates on the program. • f. Follow the on-screen prompts and instructions once you click “Start” to load the Staurosporine and destination plates. • g. Once all the compounds, DMSO and Staurosporine have been transferred, place the destination plates in a wet tissue box. • h. Place the destination plates back into the incubator and incubate at 37° C., 5% CO2 for 105 minutes. • i. Re-seal all the compound+Stauro diamond and intermediate plates and store in the dark. Chymotrypsin like ProteasomeGlo Assay • 1. Thaw the components of the ProteasomeGlo assay at room temperature including the ProteasomeGlo Buffer, the lyophilized Luciferin Detection Reagent and the Suc-LLVY-Glo Substrate. • 2. Reconstitute the Luciferin Detection Reagent in the amber coloured bottle by adding 50 ml of the ProteasomeGlo Buffer. • 3. Vortex the Suc-LLVY-Glo Substrate briefly to reconstitute the Substrate well. • 4. Spin down the Substrate and add 250 μl of the Substrate to the reconstituted Luciferin Detection Reagent from step 2. • 5. Briefly vortex the amber bottle with the mix to prepare a homogenous solution. • 6. Place the mix prepared in step 5 to sit at room temperature for 60 minutes. • 7. After 60 minutes, pipette 25 μl of the mix from step 5 into all wells with the cells. • 8. Shake the plates for 2-5 minutes to ensure the complete mixing of the ProteasomeGlo reagent with the cells. • 9. Leave the plates in the dark for 10-15 minutes. • 10. Measure the luminescence read-out using the Viktor and the protocol “Luminescence_384Well_0.2 sec”. (Note: The Protoeasome-GloTM Reagent (combined Proteasome-GloTM Substrate, Proteasome-GloTM Buffer and Luciferin Detection Reagent) can be stored at 4° C. or -20° C. for 1 month with minimal loss of activity.)

[4] = target: T2, β5 subunit of the human constitutive proteasome (CPS) (Homo sapiens, UniProt P28074); assay: β5 inhibition assay, human constitutive proteasome (Suc-LLVY-AMC); type: biochemical; conditions: IC50 class, Suc-LLVY-AMC substrate
T2 construct: purchased Boston Biochem E-360
Method: The enzymatic activity of the β5 subunit of the human constitutive proteasome (CPS) is analyzed. In another assay, which differs from the assay of the human constitutive proteasome only in using the human immunoproteasome (IPS) the enzymatic activity of the β5 subunit of the human immunoproteasome (IPS) is analyzed. […] Inhibition is indicated as IC50 [nM] (“-”=not measured).

[5] = system: MM1 S (B lymphoblast cell line); assay: 48 hr CTG viability assay, MM1S; type: cell-based; conditions: Homo sapiens, 48 hr CTG, read-out: MM1S IC50
Method: as §1

[6] = system: Hs 746T (human gastric carcinoma cell line); assay: 48 hr CTG viability assay, Hs 746T; type: cell-based; conditions: Hs746T, 48 hr CTG, read-out: Hs 746T IC50
Method: as §1

IC50 [1]	IC50 [2]	IC50 [3]	IC50 [4]	IC50 [5]	IC50 [6]	SMILES
< 100 nM	< 100 nM	< 100 nM	< 100 nM	< 100 nM	< 100 nM	Cc1ccc2cc1CNC(=O)[C@H](CCc1ccccc1)NC(=O)[C@@H](NC(=O)N1CC(C)(O)C1)CC(=O)N1CCCC(CCO2)C1 (stereo partly drawn) [Compound 669, 3-hydroxy-3-methyl-N-((9S,12S)-5^4-methyl-8,11,14-trioxo-9-phenethyl-4-oxa-7,10-diaza-1(3,1)-piperidina-5(1,3)-benzenacyclotetradecaphane-12-yl)azetidine-1-carboxamide]
< 100 nM	< 100 nM	< 100 nM	< 100 nM	< 100 nM	< 100 nM	Cc1ccc2cc1CNC(=O)[C@H](CCc1ccccc1)NC(=O)[C@@H](NC(=O)CCNC1CC3(CCC3)C1)CC(=O)N1CCCC(CCO2)C1 (stereo partly drawn) [Compound 657, N-((9S,12S)-5^4-methyl-8,11,14-trioxo-9-phenethyl-4-oxa-7,10-diaza-1(3,1)-piperidina-5(1,3)-benzenacyclotetradecaphane-12-yl)-3-(spiro[3.3]heptan-2-ylamino)propanamide]
	< 100 nM			< 100 nM	< 100 nM	Cc1ccc2cc1CNC(=O)[C@H](CCc1ccccc1)NC(=O)[C@@H](NS(=O)(=O)C1CCCCC1)CC(=O)N1CCCC(CCO2)C1 (some centres unmarked) [Compound 579]
< 100 nM	< 100 nM	< 100 nM	< 100 nM	< 100 nM		Cc1ccc2cc1CNC(=O)[C@H](CCc1ccccc1)NC(=O)[C@@H](NC(=O)C1(CO)CCC1)CC(=O)N1CCCC(CCO2)C1 (stereo partly drawn) [Compound 670, 1-(hydroxymethyl)-N-((9S,12S)-5^4-methyl-8,11,14-trioxo-9-phenethyl-4-oxa-7,10-diaza-1(3,1)-piperidina-5(1,3)-benzenacyclotetradecaphane-12-yl)cyclobutane-1-carboxamide]
< 100 nM	< 100 nM		< 100 nM	< 100 nM	< 100 nM	Cc1ccc2cc1CNC(=O)[C@H](CCc1ccccc1)NC(=O)[C@@H](NC(=O)CCOCCCC1CCCC1)CC(=O)N1CCCC(CCO2)C1 (stereo partly drawn) [Compound 692, 3-(3-cyclopentylpropoxy)-N-((9S,12S)-5^4-methyl-8,11,14-trioxo-9-phenethyl-4-oxa-7,10-diaza-1(3,1)-piperidina-5(1,3)-benzenacyclotetradecaphane-12-yl)propanamide]
< 100 nM	< 100 nM	< 100 nM	< 100 nM	< 100 nM		Cc1ccc2cc1CNC(=O)[C@H](CCc1ccccc1)NC(=O)[C@@H](NC(=O)C1(CO)CCCC1)CC(=O)N1CCCC(CCO2)C1 (stereo partly drawn) [Compound 689, 1-(hydroxymethyl)-N-((9S,12S)-5^4-methyl-8,11,14-trioxo-9-phenethyl-4-oxa-7,10-diaza-1(3,1)-piperidina-5(1,3)-benzenacyclotetradecaphane-12-yl)cyclopentane-1-carboxamide]
< 100 nM	< 100 nM	< 100 nM	< 100 nM	< 100 nM		Cc1ccc2cc1CNC(=O)[C@H](CCc1ccccc1)NC(=O)[C@@H](NC(=O)C(C)(C)CN)CC(=O)N1CCCC(CCO2)C1 (stereo partly drawn) [Compound 682, 3-amino-2,2-dimethyl-N-((9S,12S)-5^4-methyl-8,11,14-trioxo-9-phenethyl-4-oxa-7,10-diaza-1(3,1)-piperidina-5(1,3)-benzenacyclotetradecaphane-12-yl)propanamide]

Further lines, the compound ahead of its results:

SMILES	IC50 [1]	IC50 [2]	IC50 [3]	IC50 [4]	IC50 [5]	IC50 [6]
Cc1ccc2cc1CNC(=O)[C@H](CCc1ccccc1)NC(=O)[C@@H](NC(=O)C(C)(C)CO)CC(=O)N1CCC[C@@H](CCO2)C1 [Compound 644, 3-hydroxy-2,2-dimethyl-N-((13S,9S,12S)-5^4-methyl-8,11,14-trioxo-9-phenethyl-4-oxa-7,10-diaza-1(3,1)-piperidina-5(1,3)-benzenacyclotetradecaphane-12-yl)propanamide]	< 100 nM	< 100 nM	< 100 nM	< 100 nM	< 100 nM	
Cc1ccc2cc1CNC(=O)[C@H](CCc1ccccc1)NC(=O)[C@@H](NC(=O)Cc1ccc(NC(=O)[C@@H](N)CC(=O)O)cc1C)CC(=O)N1CCCC(CCO2)C1 (some centres unmarked) [Compound 578]		< 100 nM			< 100 nM	< 100 nM
Cc1ccc2cc1CNC(=O)[C@H](CCc1ccccc1)NC(=O)[C@@H](NC(=O)C(C)(C)CF)CC(=O)N1CCCC(CCO2)C1 (stereo partly drawn) [Compound 650, 3-fluoro-2,2-dimethyl-N-((9S,12S)-5^4-methyl-8,11,14-trioxo-9-phenethyl-4-oxa-7,10-diaza-1(3,1)-piperidina-5(1,3)-benzenacyclotetradecaphane-12-yl)propanamide]	< 100 nM	< 100 nM	< 100 nM	< 100 nM	< 100 nM	
Cc1ccc2cc1CNC(=O)[C@H](CCc1ccccc1)NC(=O)[C@@H](NC(=O)C(C)(C)CO)CC(=O)N1CCC[C@H](CCO2)C1 [Compound 573]		< 100 nM			< 100 nM	
Cc1ccc2cc1CNC(=O)[C@H](CCc1ccccc1)NC(=O)[C@@H](NC(=O)CCOC1CC3(C1)CN(C(=O)OC(C)(C)C)C3)CC(=O)N1CCCC(CCO2)C1 (some centres unmarked) [Compound 577]		< 100 nM			< 100 nM	< 100 nM
Cc1ccc2cc1CNC(=O)[C@H](CCc1cccnc1)NC(=O)[C@@H](NC(=O)Cc1ccccc1F)CC(=O)N1CCCC(CCO2)C1 (stereo partly drawn) [Compound 600, 2-(2-fluorophenyl)-N-((9S,12S)-5^4-methyl-8,11,14-trioxo-9-(2-(pyridin-3-yl)ethyl)-4-oxa-7,10-diaza-1(3,1)-piperidina-5(1,3)-benzenacyclotetradecaphane-12-yl)acetamide]	< 100 nM	< 100 nM		< 100 nM	< 100 nM	
Cc1ccc2cc1CNC(=O)[C@H](CCc1ccccc1)NC(=O)[C@@H](N1CC(C)(C)NC1=O)CC(=O)N1CCCC(CCO2)C1 (stereo partly drawn) [Compound 733, (9S,12S)-12-(4,4-dimethyl-2-oxoimidazolidin-1-yl)-5^4-methyl-9-phenethyl-4-oxa-7,10-diaza-1(3,1)-piperidina-5(1,3)-benzenacyclotetradecaphane-8,11,14-trione]	100 to 500 nM	1000 to 5000 nM	1000 to 5000 nM	1000 to 5000 nM	100 to 500 nM	
